These are literature values, as cited in patent US20250144120A1, “COMPOSITIONS AND METHODS FOR TREATING SKIN CONDITIONS” (priority 2023, published 2025).

Molecules are shown by their SMILES.

Turning to `CCCCCCCCCCCCCCCCCCCCC[N+](C)(C)[Si](O)(O)O.[Cl-]` [Octadecyldimethyltrihydroxysilyl propyl ammonium chloride], the skin irritation entry with skin (guinea pigs) and in the data set with skin (rabbits) was “does not irritate” in each case. For the same molecule, the eye irritation entry in the data set on eyes (rabbits) is recorded as “does not irritate”. Further, the LD50 via ingestion with animal subjects (ingestion) is above 5000 mg/kg. Besides, the LD50 via inhalation with animal subjects (inhalation) is above 2 mg/L.
